System: 252836-082-R-J2-PDC tumor spheroids, viability
Assay: Anticancer human tumor 252836-082-R-J2-PDC patient-derived head and neck squamous cell carcinoma cell line growth inhibition [PI3K]
Conditions: spheroids with HUVEC and MSC; for IC50: curve of first compound; for viability, T/C: stronger effect = lower value
Method in brief: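 We assembled tumor spheroids that included a stromal compartment of HUVEC and MSCs, then exposed them to targeted agents alone and together with PI3K pathway inhibitors. Concentration series descended by half-log from clinically achievable Cmax levels. Viability served as the endpoint.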

[1] = second compound 0.0316 µM, first compound 0.0316 µM
[2] = second compound 0.0316 µM, first compound 0.1 µM
[3] = second compound 0.0316 µM, first compound 0.316 µM
[4] = second compound 0.0316 µM, first compound 1 µM
[5] = second compound 0.0316 µM, first compound 3.16 µM
[6] = second compound 0.0316 µM, first compound 10 µM
[7] = second compound 0.1 µM, first compound 0.0316 µM
[8] = second compound 0.1 µM, first compound 0.1 µM
[9] = second compound 0.1 µM, first compound 0.316 µM
[10] = second compound 0.1 µM, first compound 1 µM
[11] = second compound 0.1 µM, first compound 3.16 µM
[12] = second compound 0.1 µM, first compound 10 µM
[13] = second compound 0.316 µM, first compound 0.0316 µM
[14] = second compound 0.316 µM, first compound 0.1 µM
[15] = second compound 0.316 µM, first compound 0.316 µM
[16] = second compound 0.316 µM, first compound 1 µM
[17] = second compound 0.316 µM, first compound 3.16 µM
[18] = second compound 0.316 µM, first compound 10 µM
[19] = second compound 1 µM, first compound 0.0316 µM
[20] = second compound 1 µM, first compound 0.1 µM
[21] = second compound 1 µM, first compound 0.316 µM
[22] = second compound 1 µM, first compound 1 µM
[23] = second compound 1 µM, first compound 3.16 µM
[24] = second compound 1 µM, first compound 10 µM
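Note: spheroids exposed to agents for seven days before readout.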
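Throughout, for viability, T/C: percent of vehicle DMSO control viability so 100% = untreated growth.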

## CC1(C)CCC(CN2CCN(c3ccc(C(=O)NS(=O)(=O)c4ccc(NCC5CCOCC5)c([N+](=O)[O-])c4)c(Oc4cnc5[nH]ccc5c4)c3)CC2)=C(c2ccc(Cl)cc2)C1 + COc1c(OCCCN2CCOCC2)ccc2c3n(c(=NC(=O)c4cnc(N)nc4)nc12)CCN3
Second compound 0.00316 µM
  IC50: 5.82 µM
Second compound 0.01 µM
  IC50: 5.25 µM
Second compound 0.0316 µM
  IC50: 3.23 µM
Second compound 0.1 µM
  IC50: < 0.0316 µM
Second compound 0.316 µM
  IC50: < 0.0316 µM
Second compound 1 µM
  IC50: < 0.0316 µM
Second compound 0.00316 µM, first compound 0.0316 µM
  viability, T/C: 89.7%
Second compound 0.00316 µM, first compound 0.1 µM
  viability, T/C: 89.2%
Second compound 0.00316 µM, first compound 0.316 µM
  viability, T/C: 89.3%
Second compound 0.00316 µM, first compound 1 µM
  viability, T/C: 83.9%
Second compound 0.00316 µM, first compound 3.16 µM
  viability, T/C: 80.7%
Second compound 0.00316 µM, first compound 10 µM
  viability, T/C: 23%
Second compound 0.01 µM, first compound 0.0316 µM
  viability, T/C: 75.8%
Second compound 0.01 µM, first compound 0.1 µM
  viability, T/C: 67.3%
Second compound 0.01 µM, first compound 0.316 µM
  viability, T/C: 76.2%
Second compound 0.01 µM, first compound 1 µM
  viability, T/C: 84.8%
Second compound 0.01 µM, first compound 3.16 µM
  viability, T/C: 80.4%
Second compound 0.01 µM, first compound 10 µM
  viability, T/C: 15.9%
[1]
  viability, T/C: 59.2%
[2]
  viability, T/C: 56%
[3]
  viability, T/C: 53.3%
[4]
  viability, T/C: 58.9%
[5]
  viability, T/C: 50.2%
[6]
  viability, T/C: 13.9%
[7]
  viability, T/C: 35.9%
[8]
  viability, T/C: 35.8%
[9]
  viability, T/C: 37%
[10]
  viability, T/C: 35.3%
[11]
  viability, T/C: 45.2%
[12]
  viability, T/C: 14.2%
[13]
  viability, T/C: 17.2%
[14]
  viability, T/C: 16.5%
[15]
  viability, T/C: 15.8%
[16]
  viability, T/C: 16.9%
[17]
  viability, T/C: 17.1%
[18]
  viability, T/C: 5.65%
[19]
  viability, T/C: 5.01%
[20]
  viability, T/C: 3.96%
[21]
  viability, T/C: 4.59%
[22]
  viability, T/C: 3.64%
[23]
  viability, T/C: 4.04%
[24]
  viability, T/C: 1.11%

## Cn1nccc1Nc1nccc(-c2ccn(C(CO)c3ccc(Cl)c(F)c3)c(=O)c2)n1 (centres undefined) + CC(Nc1ncnc2nc[nH]c12)c1cc2cccc(Cl)c2c(=O)n1-c1ccccc1
Second compound 0.0316 µM
  IC50: > 10 µM
Second compound 0.1 µM
  IC50: > 10 µM
Second compound 0.316 µM
  IC50: > 10 µM
Second compound 1 µM
  IC50: > 10 µM
Second compound 3.16 µM
  IC50: > 10 µM
Second compound 10 µM
  IC50: 6.58 µM
[1]
  viability, T/C: 83.3%
[2]
  viability, T/C: 99.5%
[3]
  viability, T/C: 91.9%
[4]
  viability, T/C: 99.6%
[5]
  viability, T/C: 93.3%
[6]
  viability, T/C: 66.2%
[7]
  viability, T/C: 100%
[8]
  viability, T/C: 94.8%
[9]
  viability, T/C: 91.3%
[10]
  viability, T/C: 95.9%
[11]
  viability, T/C: 95.9%
[12]
  viability, T/C: 67.2%
[13]
  viability, T/C: 97.2%
[14]
  viability, T/C: 94.5%
[15]
  viability, T/C: 93.7%
[16]
  viability, T/C: 81.1%
[17]
  viability, T/C: 91.9%
[18]
  viability, T/C: 76%
[19]
  viability, T/C: 75.4%
[20]
  viability, T/C: 82.3%
[21]
  viability, T/C: 91.3%
[22]
  viability, T/C: 92.6%
[23]
  viability, T/C: 81.5%
[24]
  viability, T/C: 56.5%
Second compound 3.16 µM, first compound 0.0316 µM
  viability, T/C: 72.4%
Second compound 3.16 µM, first compound 0.1 µM
  viability, T/C: 86.2%
Second compound 3.16 µM, first compound 0.316 µM
  viability, T/C: 77.5%
Second compound 3.16 µM, first compound 1 µM
  viability, T/C: 80.5%
Second compound 3.16 µM, first compound 3.16 µM
  viability, T/C: 80.9%
Second compound 3.16 µM, first compound 10 µM
  viability, T/C: 52.9%
Second compound 10 µM, first compound 0.0316 µM
  viability, T/C: 62%
Second compound 10 µM, first compound 0.1 µM
  viability, T/C: 64.8%
Second compound 10 µM, first compound 0.316 µM
  viability, T/C: 78.9%
Second compound 10 µM, first compound 1 µM
  viability, T/C: 73.4%
Second compound 10 µM, first compound 3.16 µM
  viability, T/C: 62.4%
Second compound 10 µM, first compound 10 µM
  viability, T/C: 41.8%

— PubChem BioAssay AID1963985 (Molecular Pharmacology Branch, DTP, NCI, 2024)
